Results reported in US8404738B2 (Hoffmann-La Roche Inc., priority 2011, dated 2013).

Experiments:
[1] = tested on: p21 promoter-luciferase construct; test: p21 reporter gene induction (HeLa cells, p21 promoter-luciferase construct); details: for p21 RP3: relative gene level of p21 compared to MS275 at 3 μM; for p21 RP10: relative level of p21 compared to MS275 at 10 μM; for p21 RP30: relative level of p21 compared to MS275 at 30 μM;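 for all read-outs here: transfected HeLa cells exposed to compound for 15 h, luciferase luminescence read from lysates, p21 promoter lacks p53 site, proxy for cellular HDAC1/2/3 inhibition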
[2] = target: T1, recombinant human HDAC8 (Homo sapiens, UniProt Q9BY41); test: HDAC8 inhibition: recombinant HDAC8 fluorometric assay; assay type: biochemical; details: recombinant human HDAC8, substrate Ac-Arg-His-Lys-Lys(ε-acetyl)-AMC; read-out: HDAC8 IC50
T1 construct: made in house; host or cells: insect cells
T1 sequence (Q9BY41 1-377): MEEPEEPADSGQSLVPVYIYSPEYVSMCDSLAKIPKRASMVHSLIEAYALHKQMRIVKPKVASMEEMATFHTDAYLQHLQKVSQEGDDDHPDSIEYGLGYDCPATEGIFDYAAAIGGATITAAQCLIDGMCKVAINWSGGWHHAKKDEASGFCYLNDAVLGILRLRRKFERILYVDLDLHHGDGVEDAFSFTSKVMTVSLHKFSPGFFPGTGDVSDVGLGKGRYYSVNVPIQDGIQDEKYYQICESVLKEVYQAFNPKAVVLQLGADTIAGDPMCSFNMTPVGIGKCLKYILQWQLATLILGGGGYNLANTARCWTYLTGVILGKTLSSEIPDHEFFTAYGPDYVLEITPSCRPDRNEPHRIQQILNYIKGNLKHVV
Outline: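 Recombinant human HDAC8 from insect cells was preincubated with compound for 15 min at rt, then given Ac-Arg-His-Lys-Lys(ε-acetyl)-AMC substrate for 30 min at rt. IC50 came from normalized percent inhibition with curve fitting.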

[3] = tested on: OPM-2; test: WST anti-proliferative assay, multiple myeloma cell line OPM-2; assay type: cell-based; details: Homo sapiens; OPM-2 cells, 72 hours, CCK-8
From the text: (§1) WST Anti-Proliferative Assay and Assessment of Growth Inhibitory of Novel Compounds in Multiple Myeloma Cell Lines.

[4] = target: T2, HDAC6 (Homo sapiens, UniProt Q9UBN7); test: Tubulin acetylation cytoblot assay (A549 cells); assay type: cell-based; details: 17-18 h incubation, tubulin acetylation as marker of HDAC6 inhibition, read-out: Tub-Ac EC50
T2 construct: endogenous in cells; host or cells: A549 cells
T2 sequence (Q9UBN7 1-1215): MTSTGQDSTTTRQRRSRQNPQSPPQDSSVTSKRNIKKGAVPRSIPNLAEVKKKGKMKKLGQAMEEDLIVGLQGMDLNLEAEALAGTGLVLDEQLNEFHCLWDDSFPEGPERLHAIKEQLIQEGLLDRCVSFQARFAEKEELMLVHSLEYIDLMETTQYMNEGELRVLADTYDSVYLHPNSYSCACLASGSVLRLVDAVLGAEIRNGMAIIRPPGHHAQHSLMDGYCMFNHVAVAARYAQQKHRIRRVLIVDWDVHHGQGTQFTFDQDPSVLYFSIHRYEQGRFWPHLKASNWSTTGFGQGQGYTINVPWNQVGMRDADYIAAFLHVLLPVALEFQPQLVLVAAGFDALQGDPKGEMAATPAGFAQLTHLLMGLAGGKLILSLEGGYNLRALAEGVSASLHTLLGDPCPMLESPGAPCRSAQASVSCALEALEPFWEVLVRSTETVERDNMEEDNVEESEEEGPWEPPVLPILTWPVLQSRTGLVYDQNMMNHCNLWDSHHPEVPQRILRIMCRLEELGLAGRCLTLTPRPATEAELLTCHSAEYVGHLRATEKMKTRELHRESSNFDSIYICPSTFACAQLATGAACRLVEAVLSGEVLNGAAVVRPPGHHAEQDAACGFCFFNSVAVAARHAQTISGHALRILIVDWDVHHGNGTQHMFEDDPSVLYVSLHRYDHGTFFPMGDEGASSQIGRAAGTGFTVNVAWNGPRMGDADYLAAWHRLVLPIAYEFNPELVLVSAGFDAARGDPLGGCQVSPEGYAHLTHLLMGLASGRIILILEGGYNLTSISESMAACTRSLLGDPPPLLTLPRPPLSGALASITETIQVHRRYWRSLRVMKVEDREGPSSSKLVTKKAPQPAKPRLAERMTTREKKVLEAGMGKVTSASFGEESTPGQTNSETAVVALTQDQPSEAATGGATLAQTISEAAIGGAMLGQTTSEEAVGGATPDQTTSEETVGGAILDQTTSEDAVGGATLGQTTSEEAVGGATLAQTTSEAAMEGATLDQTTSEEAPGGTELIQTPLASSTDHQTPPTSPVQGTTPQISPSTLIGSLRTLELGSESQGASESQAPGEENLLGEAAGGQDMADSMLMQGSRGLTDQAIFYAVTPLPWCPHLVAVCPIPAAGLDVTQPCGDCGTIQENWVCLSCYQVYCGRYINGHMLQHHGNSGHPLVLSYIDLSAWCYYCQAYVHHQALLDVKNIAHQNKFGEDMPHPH
Outline: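 Cells were exposed to compound for 17-18 h, then fixed with formaldehyde and permeabilized with cold MeOH. They were probed for 4 h at 4° C with anti-acetylated tubulin plus HRP anti-mouse IgG (each 1:750), and read by ECL luminescence. EC50 values came from curves normalized to top and bottom controls.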

[5] = tested on: RPMI-8226; test: WST anti-proliferative assay, multiple myeloma cell line RPMI-8226; assay type: cell-based; details: Homo sapiens, RPMI8226 cells, 72 hours, CCK-8
From the text: as §1

Compound	p21 RP3 [1]	p21 RP10 [1]	p21 RP30 [1]	IC50 [2]	IC50 [3]	EC50 [4]	IC50 [5]
O=C(NO)c1ccc(NC2CCN(c3ccc(Cl)cc3)C2=O)cc1 (stereo not drawn) [Example 7, 4-[1-(4-Chloro-phenyl)-2-oxo-pyrrolidin-3-ylamino]-N-hydroxy-benzamide]	−0.08	0.12	0.16	0.55 µM	5.56 µM	1.41 µM	8.79 µM
CC(C)(c1ccccc1)N1CCC(Nc2ccc(C(=O)NO)cc2)C1=O (stereo not drawn) [Example 47, N-Hydroxy-4-[1-(1-methyl-1-phenyl-ethyl)-2-oxo-pyrrolidin-3-ylamino]-benzamide]	0.05	0.09	0.29	0.52 µM	3.62 µM	3.02 µM	4.05 µM
CC1(Nc2ccc(C(=O)NO)cc2)CCN(c2ccc(Cl)cc2)C1=O (stereo not drawn) [Example 60, 4-[1-(4-Chloro-phenyl)-3-methyl-2-oxo-pyrrolidin-3-ylamino]-N-hydroxy-benzamide]	0.80	0.16	0.07	0.92 µM	3.94 µM	0.53 µM	8.11 µM
O=C(NO)c1ccc(NC2CC(=O)N(c3ccc(F)cc3)C2)cc1 (stereo not drawn) [Example 70, 4-[1-(4-Fluoro-phenyl)-5-oxo-pyrrolidin-3-ylamino]-N-hydroxy-benzamide]	−0.07	0.00	0.02	0.2 µM	6.47 µM	1.71 µM	10.7 µM
O=C(NO)c1ccc(NC2CC(=O)N(c3ccccc3Cl)C2)cc1 (stereo not drawn) [Example 71, 4-[1-(2-Chloro-phenyl)-5-oxo-pyrrolidin-3-ylamino]-N-hydroxy-benzamide]	0.13	0.06	0.04	1.01 µM	3.46 µM	0.81 µM	5.62 µM
O=C(NO)c1ccc(NC2CC(=O)N(c3ccc(Cl)cc3)C2)cc1 (stereo not drawn) [Example 73, 4-[1-(4-Chloro-phenyl)-5-oxo-pyrrolidin-3-ylamino]-N-hydroxy-benzamide]	0.12	0.04	0.04	1.04 µM	4.95 µM	1.47 µM	6.49 µM
CC1(Nc2ccc(C(=O)NO)cc2)C(=O)N(c2cccc(Cl)c2)c2ccc(F)cc21 (stereo not drawn) [Example 98, 4-[1-(3-Chloro-phenyl)-5-fluoro-3-methyl-2-oxo-2,3-dihydro-1H-indol-3-ylamino]-N-hydroxy-benzamide]	2.13	3.06	0.00	1.69 µM		0.19 µM	
CC1(Nc2ccc(C(=O)NO)cc2)C(=O)N(Cc2ccccc2Cl)c2ccc(F)cc21 (stereo not drawn) [Example 99, 4-[1-(2-Chloro-benzyl)-5-fluoro-3-methyl-2-oxo-2,3-dihydro-1H-indol-3-ylamino]-N-hydroxy-benzamide]	0.95	0.62	0.00	1.23 µM		0.15 µM	
CC1(Nc2ccc(C(=O)NO)cc2)C(=O)N(c2cccc(Cl)c2)c2ccncc21 (stereo not drawn) [Example 100, 4-[1-(3-Chloro-phenyl)-3-methyl-2-oxo-2,3-dihydro-1H-pyrrolo[3,2-c]pyridin-3-ylamino]-N-hydroxy-benzamide]	0.45	0.13	0.31	0.72 µM		0.71 µM	
